Common to all, as to type: in vivo
One experiment deals with T1, A2A adenosine receptor (Mus musculus, UniProt Q60613).
T1 construct: from tissue; host or cells: live mouse (airways/lung), control and sensitized animals
Kind of experiment: Effect of A2A antagonist on dose-responsiveness to CGS-21680 (Penh) in a mouse model of asthma. The following applies: DMPX 10^-4 M nebulized 3 minutes, agonist dose response 15 minutes later; control and sensitized mice. Here is the method: FIG. 2 illustrates the effect of DMPX (10^−4 M) on dose-responsiveness to […] (ug/ml). Con=solid line, Sen=dashed line, Con+DMPX=broken line, and Sen+DMPX=dotted line.
FIG. 2 illustrates the effect of DMPX (10^−4 M) on dose-responsiveness to […]. The animals were nebulized with DMPX (10^−4 M) for 3 minutes and 15 minutes later the dose response to CGS-21680 was performed. n=8 for each group. CGS-21680 is an A2A adenosine receptor agonist; DMPX is an A2A adenosine receptor antagonist.

The target in another experiment is T2, A3 adenosine receptor (Mus musculus, UniProt Q61618).
T2 construct: from tissue; host or cells: live mouse (airways/lung), control and sensitized animals
T2 sequence (Q61618 1-319): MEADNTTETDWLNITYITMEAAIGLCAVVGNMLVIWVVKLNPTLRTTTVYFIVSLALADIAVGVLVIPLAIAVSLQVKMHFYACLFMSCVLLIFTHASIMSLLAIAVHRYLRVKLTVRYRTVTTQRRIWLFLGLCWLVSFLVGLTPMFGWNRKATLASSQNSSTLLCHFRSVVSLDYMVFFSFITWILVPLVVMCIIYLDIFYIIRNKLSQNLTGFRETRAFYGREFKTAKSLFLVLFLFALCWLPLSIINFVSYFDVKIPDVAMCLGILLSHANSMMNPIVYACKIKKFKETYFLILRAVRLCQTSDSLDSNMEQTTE
Kind of experiment: Effect of MRS1220 on dose-responsiveness to IB-CL-MECA (bronchospasm) in a mouse model of asthma. The following applies: MRS1220 10^-6 M; control and sensitized mice. The source says:
Con=solid line, Sen=dotted line, Con+MRS=broken line, and Sen+MRS=dashed line.
Therefore, the combination of A3 and A2B antagonists appear better at blocking the adenosine-induced bronchospasm in a mouse model of asthma.

Another experiment deals with T3, A1 adenosine receptor (Mus musculus, UniProt Q60612).
T3 construct: from tissue; host or cells: live mouse (airways/lung), control and sensitized animals
T3 sequence (Q60612 1-326): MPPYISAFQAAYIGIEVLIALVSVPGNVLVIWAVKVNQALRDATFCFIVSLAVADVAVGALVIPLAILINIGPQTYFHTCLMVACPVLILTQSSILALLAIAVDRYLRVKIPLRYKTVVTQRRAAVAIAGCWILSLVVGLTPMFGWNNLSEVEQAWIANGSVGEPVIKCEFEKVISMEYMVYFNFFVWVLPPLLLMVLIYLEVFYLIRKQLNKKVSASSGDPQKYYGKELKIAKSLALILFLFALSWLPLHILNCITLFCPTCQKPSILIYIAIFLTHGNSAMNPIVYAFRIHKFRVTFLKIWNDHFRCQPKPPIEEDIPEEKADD
Kind of experiment: Effect of A1 antagonist on dose-responsiveness to CPA (Penh) in a mouse model of asthma. The following applies: DPCPX 10^-4 M nebulized 3 minutes, CPA dose response 15 minutes later; control and sensitized mice. As for the experimental part:
FIG. 1 illustrates the effect of DPCPX (10^−4 M) on dose-responsiveness to CPA (micrograms per milliliter—ug/ml) in a mouse model of asthma. Control (Con)=dotted line, sensitized (Sen)=broken line, Con+DPCPX=solid line, and Sen+DPCPX=dashed line. Penh=percentage of saline in all Figures.
FIG. 1 illustrates the effect of DPCPX (10^−4 M) on dose-responsiveness to CPA in a mouse model of asthma. The animals were nebulized with DPCPX […] for 3 minutes and 15 minutes later the dose response to CPA was performed. n=8 for each group. CPA is an A1 adenosine receptor agonist; DPCPX is an A1 adenosine receptor antagonist.

The target of another experiment is T4, A2B adenosine receptor (Mus musculus, UniProt Q60614).
T4 construct: from tissue; host or cells: live mouse (airways/lung), control and sensitized animals
T4 sequence (Q60614 1-332): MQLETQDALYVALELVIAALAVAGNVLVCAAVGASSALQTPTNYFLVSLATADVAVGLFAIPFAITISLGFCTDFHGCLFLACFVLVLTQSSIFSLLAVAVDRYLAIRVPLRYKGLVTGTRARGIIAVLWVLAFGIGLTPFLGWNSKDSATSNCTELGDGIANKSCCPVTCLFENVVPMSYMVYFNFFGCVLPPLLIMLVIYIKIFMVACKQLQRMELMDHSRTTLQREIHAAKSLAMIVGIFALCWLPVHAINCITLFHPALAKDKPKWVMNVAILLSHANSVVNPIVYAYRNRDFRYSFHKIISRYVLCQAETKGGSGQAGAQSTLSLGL
Put plainly: Effect of enprofylline on dose-responsiveness to NECA (Penh) in a mouse model of asthma. The following applies: enprofylline 12 mg/ml nebulized, NECA dose-response 15 minutes later; control and sensitized mice. As for the experimental part:
FIG. 3 illustrates the effect of enprofylline (enp; 12 mg/ml) on dose-responsiveness to 5′-(N-ethyl)carboxamidoadenosine (NECA, in ug/ml). Con=dotted line, Sen=dashed line, Con+enp=solid line, and Sen+enp=broken line.
FIG. 3 illustrates the effect of enprofylline (12 mg/ml) on dose-responsiveness to NECA. The animals were nebulized with enprofylline (12 mg/ml) for 1 minutes and 15 minutes later the dose-response to […] was performed. * p<0.05 compared to Sen+Enp group. # p<0.05 compared to control group. n=10 for each group. NECA is a non-selective adenosine receptor agonist; enprofylline is an A2B adenosine receptor antagonist.

T1 sequence (Q60613 whole entry): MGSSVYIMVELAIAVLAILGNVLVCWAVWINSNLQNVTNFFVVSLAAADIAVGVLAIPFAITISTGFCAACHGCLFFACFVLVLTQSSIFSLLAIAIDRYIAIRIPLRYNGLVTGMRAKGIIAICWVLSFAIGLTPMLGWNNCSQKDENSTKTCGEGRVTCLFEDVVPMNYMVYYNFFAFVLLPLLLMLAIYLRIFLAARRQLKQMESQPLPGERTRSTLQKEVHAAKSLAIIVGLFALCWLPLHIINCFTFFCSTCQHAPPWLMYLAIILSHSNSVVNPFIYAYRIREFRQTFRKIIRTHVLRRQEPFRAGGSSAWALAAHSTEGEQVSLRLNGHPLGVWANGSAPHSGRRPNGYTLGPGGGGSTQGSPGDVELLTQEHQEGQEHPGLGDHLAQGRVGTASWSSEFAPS

As for `C#CCn1c(=O)c2c(ncn2C)n(C)c1=O` [DMPX], the “effect on dose-responsiveness to CGS-21680 (Penh)” value at A2A adenosine receptor is on record as “no A2A adenosine receptor involvement”. With `O=C(Cc1ccccc1)Nc1nc2ccc(Cl)cc2c2nc(-c3ccco3)nn12` [MRS1220], at A3 adenosine receptor, the “block of the bronchospasm produced by IB-CL-MECA” value is listed as “did not completely block the bronchospasm”.

Take `CCCn1c(=O)c2[nH]c(C3CCCC3)nc2n(CCC)c1=O` [DPCPX]: the “effect on dose-responsiveness to CPA (Penh)” value at A1 adenosine receptor is listed as “no A1 adenosine receptor involvement”. `CCCn1c(=O)[nH]c(=O)c2[nH]cnc21` [enprofylline]: on A2B adenosine receptor, the “block of the response to NECA (Penh)” value is given as “did not totally block the response”.

These data come from patent publication US6387913B1, “Method of treating airway diseases with combined administration of A2B and A3 adenosine receptor antagonists” (priority 2000, dated 2002).
